pIC50: −log10 of the molar value.
Molecular target: T1, human PAR4 (Homo sapiens, UniProt Q96RI0)
T1 construct: expressed in transfected cells; host or cells: HEK293 PAR4 Clone 1.2A (BMS Arctic ID 383940)
T1 sequence (Q96RI0 18-385): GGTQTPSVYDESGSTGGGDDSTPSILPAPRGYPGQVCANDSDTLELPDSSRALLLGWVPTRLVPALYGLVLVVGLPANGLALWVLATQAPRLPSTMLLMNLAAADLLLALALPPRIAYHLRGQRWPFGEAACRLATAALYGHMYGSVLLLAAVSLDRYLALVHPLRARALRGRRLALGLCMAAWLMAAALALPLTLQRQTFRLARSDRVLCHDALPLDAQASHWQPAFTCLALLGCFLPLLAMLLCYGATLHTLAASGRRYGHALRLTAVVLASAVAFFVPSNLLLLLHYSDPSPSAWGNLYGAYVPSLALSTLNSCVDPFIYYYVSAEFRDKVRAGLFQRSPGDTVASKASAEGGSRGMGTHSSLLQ
Experiment: PAR4 FLIPR assay: antagonism of agonist-peptide-induced calcium mobilization in PAR4-expressing HEK293 cells
Format: cell-based
Details: H-Ala-Phe(4-F)-[…]NH2-induced intracellular calcium mobilization, 11-point curves

SMILES | pIC50
COc1cnc2c(-c3nc4cc(F)c(OC[C@@H](C)OC(=O)Nc5cnc(O[C@H](C)CO)nc5)nc4s3)cc(C)cc2n1 [Example 692, (R)-1-((6-fluoro-2-(2-methoxy-7-methylquinoxalin-5-yl)thiazolo[5,4-b]pyridin-5-yl)oxy) propan-2-yl (2-(((R)-1-hydroxypropan-2-yl)oxy)pyrimidin-5-yl)carbamate] | 8.74
COc1cnc2c(-c3nc4cc(F)c(O[C@@H](C)[C@@H](C)OC(=O)Nc5ccc(N6CCOCC6)nc5)cc4s3)cc(C)cc2n1 [Example 603, (2R,3S)-3-((5-fluoro-2-(2-methoxy-7-methylquinoxalin-5-yl)benzo[d]thiazol-6-yl)oxy)butan-2-yl (6-morpholinopyridin-3-yl)carbamate] | 8.68
Cc1cc(-c2nc3c(s2)CN(C(=O)OC(C)(C)C)CC3)c2ncc(OC(F)F)nc2c1 [Example 11, tert-butyl 2-(2-(difluoromethoxy)-7-methylquinoxalin-5-yl)-6,7-dihydrothiazolo[5,4-c]pyridine-5(4H)-carboxylate] | 5.77
COc1cnc2c(-c3nc4c(C)cc(OCCNS(=O)(=O)c5ccc(F)cc5)cc4s3)cc(C#N)cc2n1 [Example 231, N-(2-((2-(7-cyano-2-methoxyquinoxalin-5-yl)-4-methylbenzo[d]thiazol-6-yl)oxy)ethyl)-4-fluorobenzenesulfonamide] | 9.00
COc1cnc2c(-c3nc4cc(F)c(O[C@@H](C)[C@@H](C)OC(=O)Nc5cnc(C(=O)NCC(C)(C)O)nc5)cc4s3)cc(C)cc2n1 [Example 457, (2R,3S)-3-((5-fluoro-2-(2-methoxy-7-methylquinoxalin-5-yl)benzo[d]thiazol-6-yl)oxy)butan-2-yl (2-((2-hydroxy-2-methylpropyl)carbamoyl)pyrimidin-5-yl)carbamate] | 9.40
COc1cnc2c(-c3nc4cc(F)c(O[C@@H](C)[C@@H](C)OC(=O)Nc5ccc(C(=O)NC[C@H](C)O)nc5)nc4s3)cc(C)cc2n1 [Example 750, (2R,3S)-3-((6-fluoro-2-(2-methoxy-7-methylquinoxalin-5-yl)thiazolo[5,4-b]pyridin-5-yl)oxy)butan-2-yl (6-(((S)-2-hydroxypropyl)carbamoyl)pyridin-3-yl)carbamate] | 8.96
CCOc1cnc2c(-c3nc4cc(F)c(O[C@@H](C)[C@@H](C)OC(=O)Nc5ccc(C(=O)NCC(C)(C)O)nc5)cc4s3)cc(C)cc2n1 [Example 527, (2R,3S)-3-((2-(2-ethoxy-7-methylquinoxalin-5-yl)-5-fluorobenzo[d]thiazol-6-yl)oxy)butan-2-yl (6-((2-hydroxy-2-methylpropyl)carbamoyl)pyridin-3-yl)carbamate] | 8.85
COc1cnc2c(-c3nc4cc(F)c(O[C@@H](C)[C@@H](C)OC(=O)Nc5cnc(C)nc5)cc4s3)cc(C)cc2n1 [Example 386, (2R,3S)-3-((5-fluoro-2-(2-methoxy-7-methylquinoxalin-5-yl)benzo[d]thiazol-6-yl)oxy)butan-2-yl (2-methylpyrimidin-5-yl)carbamate] | 8.11
COc1ccc(OC(=O)NCCOc2cc(C)c3nc(-c4cc(C)cc5nc(OC)cnc45)sc3n2)cc1 [Example 662, 4-methoxyphenyl (2-((2-(2-methoxy-7-methylquinoxalin-5-yl)-7-methylthiazolo[5,4-b]pyridin-5-yl)oxy)ethyl)carbamate] | 7.11
COc1cnc2c(-c3nc4cc(F)c(OC[C@@H](C)OC(=O)Nc5ccc(C(=O)NC[C@H](C)O)nc5)cc4s3)cc(C)cc2n1 [Example 450, (R)-1-((5-fluoro-2-(2-methoxy-7-methylquinoxalin-5-yl)benzo[d]thiazol-6-yl)oxy)propan-2-yl (6-(((S)-2-hydroxypropyl)carbamoyl)pyridin-3-yl)carbamate] | 9.30
COc1cnc2c(-c3nc4c(C)cc(OCCNS(=O)(=O)c5ccc(F)cc5)cc4s3)cc(C(C)(C)O)cc2n1 [Example 242, 4-fluoro-N-(2-((2-(7-(2-hydroxypropan-2-yl)-2-methoxyquinoxalin-5-yl)-4-methylbenzo[d]thiazol-6-yl)oxy)ethyl)benzenesulfonamide] | 6.92
COCc1cnc2c(-c3nc4c(C)c(C)c(OC(C)CO)cc4s3)cc(C)cc2n1 (racemic) [Example 321, 2-((2-(2-(methoxymethyl)-7-methylquinoxalin-5-yl)-4,5-dimethylbenzo[d]thiazol-6-yl)oxy)propan-1-ol] | 8.51

More lines, in order of rising pIC50, values ahead:

pIC50 | SMILES
6.24 | Cc1ccc(-c2cc3ccccc3o2)c2ncc(OC(F)F)nc12 [Example 133, 5-(benzofuran-2-yl)-2-(difluoromethoxy)-8-methylquinoxaline]
7.48 | COc1cnc2c(-c3nc4c(s3)C(O)CCC4)cc(C)cc2n1 (stereo not drawn) [Example 138, 2-(2-methoxy-7-methylquinoxalin-5-yl)-4,5,6,7-tetrahydrobenzo[d]thiazol-7-ol]
8.00 | COc1cnc2c(-c3nc4c(C)cc(OC[C@@H](C)OC(=O)Nc5cnc(OC)nc5)nc4s3)cc(C)cc2n1 [Example 738, (R)-1-((2-(2-methoxy-7-methylquinoxalin-5-yl)-7-methylthiazolo[5,4-b]pyridin-5-yl)oxy) propan-2-yl (2-methoxypyrimidin-5-yl)carbamate]
8.70 | COc1cnc2c(-c3cc4cc(OC)c(F)cc4o3)cc(CO)cc2n1 [Example 125, (8-(6-fluoro-5-methoxybenzofuran-2-yl)-3-methoxyquinoxalin-6-yl)methanol]
8.96 | COCc1cnc2c(-c3nc4c(C)cc(OCCNS(=O)(=O)c5ccccc5F)cc4s3)cc(C)cc2n1 [Example 96, 2-fluoro N-(2-(2-(2-(methoxymethyl)-7-methylquinoxalin-5-yl)-4-methylbenzo[d]thiazol-6-yloxy)ethyl)benzenesulfonamide]
9.00 | COc1cnc2c(-c3nc4cc(F)c(OC[C@@H](C)OC(=O)Nc5cnc(C)nc5)nc4s3)cc(C)cc2n1 [Example 678, (R)-1-((6-fluoro-2-(2-methoxy-7-methylquinoxalin-5-yl)thiazolo[5,4-b]pyridin-5-yl)oxy)propan-2-yl (2-methylpyrimidin-5-yl)carbamate]
9.05 | COCc1cnc2c(-c3nc4c(C)cc(OCc5ccccc5)cc4s3)cc(C)cc2n1 [Example 307, 6-(benzyloxy)-2-(2-(methoxymethyl)-7-methylquinoxalin-5-yl)-4-methylbenzo[d]thiazole]
9.10 | COc1cnc2c(-c3nc4cc(F)c(O[C@@H](C)[C@@H](C)OC(=O)Nc5cnc(C(=O)NCCO)nc5)cc4s3)cc(C)cc2n1 [Example 455, (2R,3S)-3-((5-fluoro-2-(2-methoxy-7-methylquinoxalin-5-yl)benzo[d]thiazol-6-yl)oxy)butan-2-yl (2-((2-hydroxyethyl)carbamoyl)pyrimidin-5-yl)carbamate]
9.10 | COc1cnc2c(-c3nc4cc(F)c(O[C@@H](C)[C@@H](C)OC(=O)Nc5ccc(C(=O)N6CCC[C@@H](O)C6)nc5)cc4s3)cc(C)cc2n1 [Example 483, (2R,3S)-3-((5-fluoro-2-(2-methoxy-7-methylquinoxalin-5-yl)benzo[d]thiazol-6-yl)oxy)butan-2-yl (6-((R)-3-hydroxypiperidine-1-carbonyl)pyridin-3-yl)carbamate]

Source: patent US12060347B2 (BRISTOL-MYERS SQUIBB COMPANY, priority 2016, dated 2024)
